Assay results published in ChEMBL document CHEMBL1130520, “Solid phase synthesis of C-terminal carbohydrate modified enkephalins” (Bioorg Med Chem Lett, 1997).
Starred links: 1 amine or outer side, 2 acyl side, 3 side chain; linkers in the order of their positions; H or OH if unused. Non-standard residues stand in square brackets, D forms with d. Residues, ends and D or L forms follow the SMILES beside them. *: point of attachment. X1 = NC(=O)[C@@H]1O[C@@H](N*)[C@@H](O)[C@@H](O)[C@@H]1O; X3 = O=C(O)[C@@H]1O[C@@H](N*)[C@@H](O)[C@@H](O)[C@@H]1O; X2 = O=C(O)C1OC(NC(=O)C2OC(N*)C(O)C(O)C2O)C(O)C(O)C1O; hMet = CSCCC[C@H](N)C(=O)O; CO = O=C([*:1])[*:2]

How the values were obtained:
Assay type in all cases: functional
Mus musculus [1] = species on record: Mus musculus; experiment: Compound was tested for relative potency with respect to the compound Enkephalinamide in MVD assay
Mus musculus [2] = species on record: Mus musculus; experiment: Compound was tested in vitro for inhibiting electrically stimulated muscle contractions in mouse vas deferens (MVD); conditions: Muscle tissue
Cavia porcellus [3] = species on record: Cavia porcellus; experiment: Compound was tested in vitro for inhibiting electrically stimulated muscle contractions in guinea pig ileum (GPI)
Cavia porcellus [4] = species on record: Cavia porcellus; experiment: Compound was tested for relative potency with respect to the compound Enkephalinamide in GPI assay

SMILES: CSCCC[C@H](NC(=O)N[C@@H]1O[C@@H](C(=O)O)[C@@H](O)[C@H](O)[C@@H]1O)C(=O)N[C@@H](Cc1ccccc1)C(=O)NCC(=O)NCC(=O)N[C@@H](Cc1ccc(O)cc1)C(=O)O ({X3-CO}-[hMet]FGGY-OH)
- Relative potency (Mus musculus [1]): 3.8
- IC50 (Mus musculus [2]): 70 nM
- IC50 (Cavia porcellus [3]): 110 nM
- Relative potency (Cavia porcellus [4]): 4.54

SMILES: CC(C)C[C@H](NC(=O)N[C@@H]1O[C@@H](C(N)=O)[C@@H](O)[C@H](O)[C@@H]1O)C(=O)N[C@@H](Cc1ccccc1)C(=O)NCC(=O)NCC(=O)N[C@@H](Cc1ccc(O)cc1)C(=O)O ({X1-CO}-LFGGY-OH)
- Relative potency (Mus musculus [1]): 0.51
- IC50 (Mus musculus [2]): 110 nM
- IC50 (Cavia porcellus [3]): 3860 nM
- Relative potency (Cavia porcellus [4]): 0.14

SMILES: CC(C)C[C@H](NC(=O)NC1OC(C(=O)NC2OC(C(=O)O)C(O)C(O)C2O)C(O)C(O)C1O)C(=O)N[C@@H](Cc1ccccc1)C(=O)NCC(=O)NCC(=O)N[C@@H](Cc1ccc(O)cc1)C(=O)O (stereo not given in full) ({X2-CO}-LFGGY-OH)
- Relative potency (Mus musculus [1]): 2.56
- IC50 (Mus musculus [2]): 550 nM
- IC50 (Cavia porcellus [3]): 1040 nM
- Relative potency (Cavia porcellus [4]): 0.52

SMILES: CC(C)C[C@H](NC(=O)N[C@@H]1O[C@@H](C(=O)O)[C@@H](O)[C@H](O)[C@@H]1O)C(=O)N[C@@H](Cc1ccccc1)C(=O)NCC(=O)NCC(=O)N[C@@H](Cc1ccc(O)cc1)C(=O)O ({X3-CO}-LFGGY-OH)
- Relative potency (Mus musculus [1]): 35.39
- IC50 (Mus musculus [2]): 8 nM
- IC50 (Cavia porcellus [3]): 200 nM
- Relative potency (Cavia porcellus [4]): 2.74

SMILES: CC(C)C[C@H](NC(=O)[C@H](Cc1ccccc1)NC(=O)CNC(=O)CNC(=O)[C@@H](N)Cc1ccc(O)cc1)C(N)=O (single isomer, unassigned) [[LEU5]ENKEPHALIN]
- Relative potency (Mus musculus [1]): 1
- IC50 (Mus musculus [2]): 280 nM
- IC50 (Cavia porcellus [3]): 540 nM
- Relative potency (Cavia porcellus [4]): 1
